# According to patent US20100197788A9, “Preventive or therapeutic agent for disease caused by decrease in lacrimal fluid” (priority 2005, published 2010):
# Structures can show the parent of a compound that is named as a salt.
# How the values were obtained:
# [1] = tested on: male Japanese white rabbits; test: Measurement of tear secretion in rabbits given a β3 AR stimulant (Example 1), with or without ICI-118551 pre-treatment; type: in vivo, rabbit
# Procedure: Four fasting male Japanese white rabbits (about 3 kg) were allocated to each group. Compound 1 (hydrochloride, 3 or 30 mg/kg), a β3 AR stimulant, or the vehicle (0.5% gum Arabic) was administered to the duodenum through a needle placed in the duodenum of a rabbit, which was anesthetized with urethane (25%, 5 mL/kg, subcutaneously). The quantity of tear secretion was measured for 5 min before drug administration and for 5 min at 20 min after drug administration in the following manner. One piece each of pre-weighed filter paper (Wattman No. 41, 0.22 mm thick, 2.5×1.5 mm) was inserted to each of the upper and lower eyelids of either right or left eye. The difference in weight of the filter papers before and after insertion (post-insertion weight−pre-insertion weight) was defined as the quantity of tear secretion. Fifty (50) μL of a local anesthetic agent, 0.4% oxybuprocaine hydrochloride (Santen Co.), was instilled into eyes 5 min before each measurement. Tear and the instilled local anesthetic were wiped immediately before the filter paper was inserted. Filter papers recovered after each measurement were placed into tubes. A phosphate buffer (pH 7.4) (500 μL) was added to each of the tubes, and they were agitated for 30 sec. After the filter papers were removed and the mixture was centrifuged at 1,880×g for 5 min, protein concentrations in supernatant were measured using Micro BCA Protein Assay Reagent Kit (Pierce Co.). The quantity of protein in tear was calculated based on the protein concentration and the quantity of tear secretion at each time. The difference in the quantity of tear secretion before administration of a test drug and that at each measurement after administration was defined as a change in the quantity of tear secretion or protein in tear. Each milligram of the change in the quantity of tear was taken as 1 μL in tabulation. As a result, administration of Compound 1 (hydrochloride, 3 or 30 mg/kg) into the duodenum facilitated the tear secretion and protein secretion in tear.
# In addition, in order to study the role played by a β2 AR stimulating activity in the above-described actions of Compound 1, 30 μg/kg of ICI-118551 (Sigma Co.), a selective β2 AR inhibitor, was administered intravenously 5 min before administration of Compound 1 (30 mg/kg) and the same test was performed. The facilitating activities of tear secretion and protein secretion in tear by Compound 1 were not affected by pre-treatment with the selective β2 AR inhibitor, ICI-118551 (30 μg/kg, i.v.) (FIG. 5). The results confirmed that the Compound 1's activities facilitating tear secretion and protein secretion in tear were exerted by way of β3 AR.
# [2] = tested on: male Japanese white rabbits; test: Measurement of tear in rabbits given a β3 AR stimulant having a β2 AR stimulating activity (Example 2); type: in vivo, rabbit; conditions: for total quantity of protein secretion in tear / total quantity of tear secretion: 60 min, compared to Control group
# Procedure: Four fasting male Japanese white rabbits (about 3 kg) were allocated to each group. Compound 2 (0.3, 1 or 10 mg/kg), which is a β3 AR stimulant having a β2 AR stimulating activity, terbutaline sulfate (10 mg/kg), which is a β2 AR stimulant, or their vehicle (distilled water) was administered to the duodenum through a needle placed in the duodenum of a rabbit which was anesthetized with urethane (25%, 5 mL/kg, subcutaneously). In the same manner as in Example 1, quantities of tear secretion and protein in tear were measured for each 5 min before drug administration and at 5, 20, 30, 40 and 50 min after drug administration. The total quantities of tear secretion and protein in tear were defined as the sum total of the quantities of secretion at each measurement time during 60 min after administration of the test drug. Each […] of the change in the quantity of tear was considered as 1 μL in tabulation.
# [3] = tested on: male Japanese white rabbits; test: Measurement of tear in rabbits following ocular instillation (Example 4); type: in vivo, rabbit; conditions: 0.1% solution, 50 μL
# Procedure: Four fasting male Japanese white rabbits (about 3 kg) were allocated to each group. After rabbits were anesthetized with urethane (25%, 5 mL/kg, subcutaneously), 50 μL of Compound 2 (0.1% solution) or the vehicle (a phosphate buffer solution, pH 7.4) was instilled in either right or left eye. The quantity of tear secretion was measured and calculated for each 5 min before and at 5 and 20 min after instillation in the same manner as in Example 1. The difference in the quantity of tear secretion before administration of a test drug and that at each measurement time after ocular instillation was defined as a change in the quantity of tear secretion. Each milligram of the change in the quantity of tear secretion was considered as 1 μL in tabulation.
# [4] = tested on: male SD strain rats; test: Measurement of tear in rats given a β3 AR stimulant having a β2 AR stimulating activity (Example 3); type: in vivo, rat; conditions: for total quantity of protein secretion in tear / total quantity of tear secretion: 60 min, compared to Control group
# Procedure: Nine (9) to 10 fasting male SD strain rats (7 weeks old) were allocated to each group. Rats were fixed in prone position under urethane anesthesia (25%, 5 mL/kg, subcutaneously). Compound 2 (0.3, 1 or 10 mg/kg), which is a β3 AR stimulant having a β2 AR stimulating activity, terbutaline sulfate (10 mg/kg), which is a β2 AR stimulant, or their vehicle (distilled water) were administered to the duodenum through a needle placed in the duodenum. One end of a capillary (Drummond Microdispenser Co. 10 μL) was placed at the inner canthus of rat right eye after tear was wiped. The quantity of tear secretion was measured by the length of the capillary filled with tear in 60 minutes after drug administration. The total quantity of tear secretion (μL) was calculated using the inner diameter of the capillary and the length of the capillary filled with tear. After the quantity of tear secretion was measured, the tear in the capillary was recovered in a tube to measure the protein concentration using Micro BCA Protein Assay Reagent Kit (Pierce Co.). The total quantity of protein in tear was calculated using the obtained protein concentration and the total quantity of tear secretion.
# [5] = tested on: rabbit conjunctiva; test: Mucin secretion from the rabbit conjunctiva following ocular instillation, impression cytology method (Example 5); type: in vivo; conditions: 0.1% solution, 50 μL, 30 min after instillation, vs vehicle, rabbits
# Procedure: Four male Japanese white rabbits (about 3 kg) were allocated to each group. After rabbits were anesthetized with ketamine-xylazine (3:1), 50 μL of Compound 2 (0.1% solution), terbutaline sulfate (0.1% solution) or their vehicle (a phosphate buffer solution, pH 7.4) were instilled in either side of eyes. Mucin secretion from the conjunctiva was measured 30 min after instillation by impression cytology method. That is, after ocular instillation of 50 μL of a local anesthetic (0.4% oxybuprocaine hydrochloride by Santen Co.), residual tear was wiped 5 min after instillation and 3×3 mm cellulose acetate filter paper was pressed on the conjunctiva for 30 sec. Then, PAS staining was performed with the recovered filter papers in the same manner as in Example 2. After filter papers were cleared and embedded, the number of PAS positive goblet cells existing in a certain visual field of a microscope was counted. Decreases in the count of PAS positive goblet cells indicate that mucin secretion from the conjunctiva is facilitated. […] However, terbutaline sulfate had no effect (FIG. 9).
# [6] = Compound 1 30 mg/kg, ICI-118551 30 μg/kg i.v. 5 min before
# [7] = hydrochloride, 3 or 30 mg/kg into the duodenum, anesthetized rabbits, 5 min at 20 min after administration vs before
# [8] = 0.3, 1 and 10 mg/kg into the duodenum
# [9] = doses of 1 mg/kg and above into the duodenum
# [10] = 10 mg/kg into the duodenum, compared to Compound 2 (10 mg/kg) group
compound,measurement,setting,value
"CCOC(=O)COc1cc(C)c(CCN[C@@H](C)[C@H](O)c2ccc(O)cc2)cc1C [Compound 1, ethyl 2-[4-[2-[[(1S,2R)-2-hydroxy-2-(4-hydroxy-phenyl)-1-methylethyl]amino]ethyl]-2,5-dimethylphenoxy]-acetate]",change in the quantity of protein in tear,"[1]; 30 mg/kg into the duodenum, compared to Control group (p<0.05, Dunnett)",significantly increased
same,facilitating activity of protein secretion in tear after pre-treatment with selective β2 AR inhibitor,[1]; [6],not affected
same,facilitating activity of tear secretion after pre-treatment with selective β2 AR inhibitor,[1]; [6],not affected
same,protein secretion in tear,[1]; [7],facilitated
same,tear secretion,[1]; [7],facilitated
C[C@H](NCCc1ccc(OCC(=O)O)cc1)[C@H](O)c1ccc(O)cc1 [Compound 2],protein secretion in tear,[2]; [8],facilitated dose-dependently
same,tear secretion,[2]; [8],facilitated dose-dependently
same,total quantity of protein secretion in tear,[2]; [9],significantly increased
same,total quantity of tear secretion,[2]; [9],significantly increased
same,tear secretion,[3],facilitated
same,quantity of tear secretion measured for 5 min after ocular instillation,[3]; compared to Control group,significantly increased
same,protein secretion in tear,[4]; [8],facilitated dose-dependently
same,tear secretion,[4]; [8],facilitated dose-dependently
same,total quantity of protein secretion in tear,[4]; [9],significantly increased
same,total quantity of tear secretion,[4]; [9],significantly increased
same,mucin secretion from the conjunctiva (count of PAS positive goblet cells),[5],facilitated mucin secretion from the conjunctiva more than the vehicle did
"CC(C)(C)NCC(O)c1cc(O)cc(O)c1 (stereo not drawn) [terbutaline sulfate, reference compound]",total quantity of protein secretion in tear,[2]; 10 mg/kg into the duodenum,significantly increased
same,total quantity of tear secretion,[2]; 10 mg/kg into the duodenum,significantly increased
same,increase in total quantity of protein secretion in tear,[2]; [10],significantly lower
same,increase in total quantity of tear secretion,[2]; [10],significantly lower
same,total quantity of protein secretion in tear,[4]; 10 mg/kg into the duodenum,significantly increased
same,total quantity of tear secretion,[4]; 10 mg/kg into the duodenum,significantly increased
same,total quantity of protein in tear,[4]; [10],significantly lower
same,mucin secretion from the conjunctiva (count of PAS positive goblet cells),[5],no effect
